From ChEMBL document CHEMBL1201862, “PubChem BioAssay data set” (2004)
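Interpolation was linear, between the two tested concentrations surrounding the appropriate level; five concentrations were tested over 48 hours in 96-well plates. At the GI50, growth is halved.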 Active and inactive are the calls of the source. Cut-off read from the data, not from the text of the source: active = GI50 up to about 1.1 µM and inactive = higher.

Columns and labels:
Test in all cases: NCI tumour cell line growth inhibition, 48 h
[1] = tested on: ACHN
[2] = tested on: HOP-92
[3] = tested on: Malme-3M
[4] = tested on: OVCAR-4
[5] = tested on: NCI-H226
[6] = tested on: OVCAR-8
[7] = tested on: MDA-MB-435
[8] = tested on: MOLT-4
[9] = tested on: HOP-62
[10] = tested on: SK-OV-3
[11] = tested on: OVCAR-3
[12] = tested on: SK-MEL-5
[13] = tested on: NCI-H23
[14] = tested on: SNB-75
[15] = tested on: T47D
[16] = tested on: UACC-257
[17] = tested on: SW-620
[18] = tested on: PC-3
[19] = tested on: SN12C
[20] = tested on: CAKI-1
[21] = tested on: COLO 205
[22] = tested on: MDA-N
[23] = tested on: IGROV-1
[24] = tested on: RPMI-8226
[25] = tested on: TK-10
[26] = tested on: RXF 393
[27] = tested on: EKVX
[28] = tested on: SF-295
[29] = tested on: A549
[30] = tested on: CCRF-CEM
[31] = tested on: K562
[32] = tested on: SK-MEL-28
[33] = tested on: 786-0
[34] = tested on: SK-MEL-2
[35] = tested on: SF-268
[36] = tested on: NCI-H522
[37] = tested on: MDA-MB-231
[38] = tested on: LOX IMVI
[39] = tested on: U-251
[40] = tested on: DU-145
[41] = tested on: SNB-19
[42] = tested on: UACC-62
[43] = tested on: NCI/ADR-RES
[44] = tested on: M14
[45] = tested on: OVCAR-5
[46] = tested on: HCT-15
[47] = tested on: MCF7
[48] = tested on: HL-60
[49] = tested on: Hs-578T
[50] = tested on: KM12
[51] = tested on: HT-29
[52] = tested on: UO-31
[53] = tested on: BT-549
[54] = tested on: HCT-116
[55] = tested on: A498
[56] = tested on: HCC 2998
[57] = tested on: SF-539
[58] = tested on: NCI-H460
[59] = tested on: SR

With `Cc1cccc2c(N)c3cccc(C(=O)NCC[N+](C)(C)Cc4sc(N5CCOCC5)nc4[N+](=O)[O-])c3nc12` the GI50 [1] was 0.381 µM (active), the GI50 [2] was 15.2 µM (inactive) and the GI50 [3] was 5.93 µM (inactive). For the same compound, the GI50 [4] was 4.11 µM (inactive), the GI50 [5] was 1.51 µM (inactive) and the GI50 [6] was 2.12 µM (inactive). For the same compound, the GI50 [7] was 5.21 µM (inactive), the GI50 [8] was 0.231 µM (active) and the GI50 [9] was 0.491 µM (active). For the same compound, the GI50 [10] was 1.82 µM (inactive), the GI50 [11] was 2.09 µM (inactive) and the GI50 [12] was 5.01 µM (inactive). For the same compound, the GI50 [13] was 2.26 µM (inactive), the GI50 [14] was 5.86 µM (inactive) and the GI50 [15] was 12.7 µM (inactive). The GI50 [16] was 6.9 µM (inactive), the GI50 [17] was 0.6 µM (active) and the GI50 [18] was 3.37 µM (inactive). For the same compound, the GI50 [19] was 1.65 µM (inactive), the GI50 [20] was 0.344 µM (active) and the GI50 [21] was 1.2 µM (inactive). For the same compound, the GI50 [22] was 3.82 µM (inactive), the GI50 [23] was 1.25 µM (inactive) and the GI50 [24] was 3.13 µM (inactive). The GI50 [25] was 10.3 µM (inactive), the GI50 [26] was 4.36 µM (inactive) and the GI50 [27] was 4.26 µM (inactive). The GI50 [28] was 1.1 µM (active), the GI50 [29] was 0.178 µM (active) and the GI50 [30] was 0.217 µM (active). For the same compound, the GI50 [31] was 1.16 µM (inactive), the GI50 [32] was 29.7 µM (inactive) and the GI50 [33] was 0.547 µM (active). The GI50 [34] was 22.6 µM (inactive), the GI50 [35] was 23 µM (inactive) and the GI50 [36] was 1.12 µM (inactive). The GI50 [37] was 2.28 µM (inactive), the GI50 [38] was 0.685 µM (active) and the GI50 [39] was 3.04 µM (inactive). The GI50 [40] was 4.01 µM (inactive), the GI50 [41] was 4.82 µM (inactive) and the GI50 [42] was 3.89 µM (inactive). The GI50 [43] was 3.12 µM (inactive), the GI50 [44] was 2.77 µM (inactive) and the GI50 [45] was 1.32 µM (inactive). The GI50 [46] was 1.08 µM, the GI50 [47] was 0.438 µM (active) and the GI50 [48] was 0.071 µM (active). For the same compound, the GI50 [49] was 0.748 µM (active), the GI50 [50] was 2.43 µM (inactive) and the GI50 [51] was 0.444 µM (active). The GI50 [52] was 4.17 µM (inactive), the GI50 [53] was 13.1 µM (inactive) and the GI50 [54] was 1.93 µM (inactive). The GI50 [55] was 11.4 µM (inactive), the GI50 [56] was 1.41 µM (inactive) and the GI50 [57] was 1.12 µM (active).

For `NC(=O)/C(=C\c1ccncc1)c1cccc2ccccc12`, the GI50 [1] was > 100 µM (inactive), the GI50 [2] was > 100 µM (inactive) and the GI50 [3] was > 100 µM (inactive). For the same compound, the GI50 [4] was > 100 µM (inactive), the GI50 [5] was 38 µM (inactive) and the GI50 [6] was > 100 µM (inactive). For the same compound, the GI50 [7] was > 100 µM (inactive), the GI50 [8] was > 100 µM (inactive) and the GI50 [9] was > 100 µM (inactive). For the same compound, the GI50 [10] was > 100 µM (inactive), the GI50 [11] was > 100 µM (inactive) and the GI50 [12] was 56.9 µM (inactive). The GI50 [13] was 91.6 µM (inactive), the GI50 [58] was 45.1 µM (inactive) and the GI50 [14] was > 100 µM (inactive). For the same compound, the GI50 [15] was > 100 µM (inactive), the GI50 [16] was < 0.01 µM (active) and the GI50 [17] was > 100 µM (inactive). For the same compound, the GI50 [18] was > 100 µM (inactive), the GI50 [19] was 34.6 µM (inactive) and the GI50 [20] was > 100 µM (inactive). The GI50 [21] was 50.5 µM (inactive), the GI50 [22] was 43.1 µM (inactive) and the GI50 [23] was > 100 µM (inactive). The GI50 [24] was > 100 µM (inactive), the GI50 [25] was > 100 µM (inactive) and the GI50 [26] was > 100 µM (inactive). The GI50 [27] was > 100 µM (inactive), the GI50 [28] was > 100 µM (inactive) and the GI50 [29] was > 100 µM (inactive). The GI50 [30] was > 100 µM (inactive), the GI50 [31] was > 100 µM (inactive) and the GI50 [32] was > 100 µM (inactive). The GI50 [33] was > 100 µM (inactive), the GI50 [34] was > 100 µM (inactive) and the GI50 [35] was > 100 µM (inactive). For the same compound, the GI50 [36] was > 100 µM (inactive), the GI50 [37] was > 100 µM (inactive) and the GI50 [38] was > 100 µM (inactive). For the same compound, the GI50 [39] was > 100 µM (inactive), the GI50 [40] was 67.8 µM (inactive) and the GI50 [41] was > 100 µM (inactive). The GI50 [42] was 25.3 µM (inactive), the GI50 [43] was > 100 µM (inactive) and the GI50 [44] was 55.1 µM (inactive). For the same compound, the GI50 [45] was > 100 µM (inactive), the GI50 [46] was over 100 µM and the GI50 [47] was > 100 µM (inactive). For the same compound, the GI50 [48] was > 100 µM (inactive), the GI50 [49] was > 100 µM (inactive) and the GI50 [50] was > 100 µM (inactive). For the same compound, the GI50 [51] was > 100 µM (inactive), the GI50 [59] was 53.3 µM (inactive) and the GI50 [52] was > 100 µM (inactive). The GI50 [53] was > 100 µM (inactive), the GI50 [54] was > 100 µM (inactive) and the GI50 [57] was > 100 µM (inactive).

`Cc1ccc(C(=O)Nc2ccc(CP(=O)(O)O)cc2)cc1NC(=O)c1cccc(NC(=O)Nc2cccc(C(=O)Nc3cc(C(=O)Nc4ccc(CP(=O)(O)O)cc4)ccc3C)c2)c1` was tested, and the GI50 [1] was > 100 µM (inactive), the GI50 [3] was > 100 µM (inactive) and the GI50 [4] was > 100 µM (inactive). For the same compound, the GI50 [5] was > 100 µM (inactive), the GI50 [6] was > 100 µM (inactive) and the GI50 [7] was > 100 µM (inactive). The GI50 [9] was > 100 µM (inactive), the GI50 [10] was > 100 µM (inactive) and the GI50 [11] was > 100 µM (inactive). The GI50 [12] was > 100 µM (inactive), the GI50 [13] was > 100 µM (inactive) and the GI50 [58] was > 100 µM (inactive). For the same compound, the GI50 [14] was > 100 µM (inactive), the GI50 [15] was > 100 µM (inactive) and the GI50 [16] was > 100 µM (inactive). For the same compound, the GI50 [17] was > 100 µM (inactive), the GI50 [18] was > 100 µM (inactive) and the GI50 [19] was > 100 µM (inactive). For the same compound, the GI50 [20] was > 100 µM (inactive), the GI50 [21] was > 100 µM (inactive) and the GI50 [22] was > 100 µM (inactive). For the same compound, the GI50 [23] was > 100 µM (inactive), the GI50 [24] was > 100 µM (inactive) and the GI50 [25] was > 100 µM (inactive). For the same compound, the GI50 [26] was > 100 µM (inactive), the GI50 [27] was > 100 µM (inactive) and the GI50 [28] was > 100 µM (inactive). The GI50 [29] was > 100 µM (inactive), the GI50 [30] was > 100 µM (inactive) and the GI50 [31] was > 100 µM (inactive). For the same compound, the GI50 [32] was > 100 µM (inactive), the GI50 [33] was > 100 µM (inactive) and the GI50 [34] was > 100 µM (inactive). The GI50 [35] was > 100 µM (inactive), the GI50 [36] was > 100 µM (inactive) and the GI50 [37] was > 100 µM (inactive). The GI50 [38] was > 100 µM (inactive), the GI50 [39] was > 100 µM (inactive) and the GI50 [40] was > 100 µM (inactive). For the same compound, the GI50 [41] was > 100 µM (inactive), the GI50 [42] was > 100 µM (inactive) and the GI50 [43] was > 100 µM (inactive). The GI50 [44] was > 100 µM (inactive), the GI50 [45] was > 100 µM (inactive) and the GI50 [46] was over 100 µM. For the same compound, the GI50 [47] was > 100 µM (inactive), the GI50 [48] was > 100 µM (inactive) and the GI50 [49] was > 100 µM (inactive). The GI50 [50] was > 100 µM (inactive), the GI50 [51] was > 100 µM (inactive) and the GI50 [52] was > 100 µM (inactive). For the same compound, the GI50 [53] was > 100 µM (inactive), the GI50 [54] was > 100 µM (inactive) and the GI50 [55] was > 100 µM (inactive). The GI50 [56] was > 100 µM (inactive) and the GI50 [57] was > 100 µM (inactive).
